Read-outs that look alike come from different tables or passages of the source.

One assay addresses rat brain α7 receptors (Rattus norvegicus, UniProt Q05941). The experiment in a line: biochemical. Format: binding.
The target of assay [1] is T1, human α4β2 nAChR (Homo sapiens, UniProt P17787+P43681).
T1 construct: expressed in transfected cells; host or cells: Xenopus laevis oocytes (mRNA injection)
The assay is described as follows: Two-electrode voltage-clamp, human α4β2 nAChRs expressed in Xenopus oocytes. As to conditions: ± SEM; for EC50: EC50, potency, peak current; for Imax (% ACh): efficacy, peak current normalized to 100 µM ACh. The assay is classed as cell-based. The source says:
(§1) It has been especially useful for investigating α7 nAChRs, due to the difficulties that were initially encountered in functional expression of this particular homomeric nAChR in mammalian cells. We measured the peak current response of an oocyte to a given concentration of the compound and expressed its amplitude with respect to the mean response to ACh before and after the compound test concentration.
(§2) Oocytes were harvested from Xenopus laevis frogs obtained from NASCO Scientific Co. (Ft. Atkinson, WI, USA) according to an accepted Kem laboratory Institutional Animal Care Committee (IACUC) approved protocol. We have already described the methods of oocyte injection, perfusion, rapid solution changes, and recording in considerable detail. Oocytes were injected with identical amounts (usually 12 ng) of human α4 and β2 mRNAs for α4β2 nAChR expression, or 20 ng of human α7 mRNAs for α7 nAChR expression. The two-electrode voltage-clamp method was used for recording peak responses (holding Em-50 mV for α4β2 and-60 mV for α7 receptors). […] The oocyte was no longer used if the current response to ACh decreased more than 20% during the experiment. Compounds dissolved in Barth’s saline (pH 7.3) were rapidly administered by an AutoMate perfusion system. Compound applications were separated by a 5 min wash period. We utilized GraphPad Prism software to analyze the data, always assuming a single homogeneous receptor population.
On the technique in general: Two-electrode voltage clamp is typically applied to oocytes expressing channels or transporters.

For a further assay, the target named is rat brain α4β2 nAChRs (Rattus norvegicus, UniProt P09483+P12390). The assay is described as follows: [3H]-cytisine displacement from rat brain membranes. Format: binding. As to conditions: ± SEM; for Ki: 0.3 nM [3H]-cytisine, 4 °C 4 h; for Hill Slope: [3H]-cytisine displacement. How it is done: [^3H]-Cytisine was purchased from New England Nuclear and iodinated α-bungarotoxin [^125I]-BTX from Amersham. […] [^3H]-Cytisine binding experiments were performed according to [57] with several modifications. Rat brain membranes were incubated with [^3H]-cytisine at 4 °C for 4 h. Then, 200 μg of membrane protein was incubated in a final volume of 500 μL binding saline at 4 °C for 4 h, while binding assays with ^125I-bungarotoxin were incubated at 37 °C for 3 h to assure that equilibrium was reached. […] Reactions were terminated by vacuum filtrations through Whatman GF/C filters (presoaked in PEI) using a Brandel cell harvester. Bound [^3H]-cytisine and ^125I-bungarotoxin were measured with liquid scintillation and gamma counters, respectively. Data were analyzed using GraphPad Prism software (San Diego, CA, USA). The data were fit by nonlinear regression analyses to a sigmoidal dose-response with variable slope. Ki values were calculated using the Cheng-Prusoff equation (K i = IC50/(1 + [RL]/Kd RL)) with a Kd RL value for each radioligand that had been previously determined. IC50 is the median inhibition concentration of the experimental compound and [RL] is the concentration of the radioligand.

The target of another assay is T2, human α7 nAChR (Homo sapiens, UniProt P36544).
T2 construct: expressed in transfected cells; host or cells: Xenopus laevis oocytes (mRNA injection)
The experiment in a line: Two-electrode voltage-clamp, human α7 nAChRs expressed in Xenopus oocytes. The note with it: for EC50: EC50, potency, peak current estimates; for EC50 / Imax (% ACh): ± SEM; for Imax (% ACh): efficacy, peak current normalized to 1 mM ACh; for agonist character at α7 nAChRs: in words. The assay is classed as cell-based.
From the text: as §1, §2

The target in assay [2] is T1, human α4β2 nAChR. The note with it: human α4β2 nAChRs; ref Kem et al., in preparation; cited from earlier work.

T2 sequence (P36544 23-502): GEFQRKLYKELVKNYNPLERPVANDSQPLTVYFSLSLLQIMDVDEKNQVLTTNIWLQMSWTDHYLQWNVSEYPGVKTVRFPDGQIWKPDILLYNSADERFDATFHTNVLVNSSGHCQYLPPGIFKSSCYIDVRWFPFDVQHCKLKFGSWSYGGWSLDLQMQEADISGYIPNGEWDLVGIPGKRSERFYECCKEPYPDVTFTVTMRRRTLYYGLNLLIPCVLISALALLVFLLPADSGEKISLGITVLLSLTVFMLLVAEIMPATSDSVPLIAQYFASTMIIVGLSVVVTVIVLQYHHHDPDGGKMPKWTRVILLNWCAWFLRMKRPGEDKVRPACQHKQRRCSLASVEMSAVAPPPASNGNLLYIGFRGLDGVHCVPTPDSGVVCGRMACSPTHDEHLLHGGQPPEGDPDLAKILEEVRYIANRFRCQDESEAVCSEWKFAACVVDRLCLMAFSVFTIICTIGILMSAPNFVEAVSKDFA
T1 sequence (P43681 29-627 limits assumed): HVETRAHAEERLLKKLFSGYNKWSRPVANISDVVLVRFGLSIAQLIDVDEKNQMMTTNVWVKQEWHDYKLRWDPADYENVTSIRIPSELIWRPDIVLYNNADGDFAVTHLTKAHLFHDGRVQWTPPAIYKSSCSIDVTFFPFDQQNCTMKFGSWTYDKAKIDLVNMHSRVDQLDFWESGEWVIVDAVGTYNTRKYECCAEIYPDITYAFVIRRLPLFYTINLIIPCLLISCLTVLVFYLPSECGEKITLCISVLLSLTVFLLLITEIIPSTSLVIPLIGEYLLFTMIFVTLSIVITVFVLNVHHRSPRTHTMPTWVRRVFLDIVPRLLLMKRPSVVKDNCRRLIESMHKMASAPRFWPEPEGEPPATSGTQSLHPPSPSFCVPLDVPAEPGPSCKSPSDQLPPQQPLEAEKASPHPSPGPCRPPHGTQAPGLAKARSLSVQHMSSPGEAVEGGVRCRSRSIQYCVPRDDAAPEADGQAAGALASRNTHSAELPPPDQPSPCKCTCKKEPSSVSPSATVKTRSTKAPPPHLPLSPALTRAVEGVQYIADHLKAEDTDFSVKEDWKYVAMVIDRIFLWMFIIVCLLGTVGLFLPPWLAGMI
T1 sequence (P17787 26-502): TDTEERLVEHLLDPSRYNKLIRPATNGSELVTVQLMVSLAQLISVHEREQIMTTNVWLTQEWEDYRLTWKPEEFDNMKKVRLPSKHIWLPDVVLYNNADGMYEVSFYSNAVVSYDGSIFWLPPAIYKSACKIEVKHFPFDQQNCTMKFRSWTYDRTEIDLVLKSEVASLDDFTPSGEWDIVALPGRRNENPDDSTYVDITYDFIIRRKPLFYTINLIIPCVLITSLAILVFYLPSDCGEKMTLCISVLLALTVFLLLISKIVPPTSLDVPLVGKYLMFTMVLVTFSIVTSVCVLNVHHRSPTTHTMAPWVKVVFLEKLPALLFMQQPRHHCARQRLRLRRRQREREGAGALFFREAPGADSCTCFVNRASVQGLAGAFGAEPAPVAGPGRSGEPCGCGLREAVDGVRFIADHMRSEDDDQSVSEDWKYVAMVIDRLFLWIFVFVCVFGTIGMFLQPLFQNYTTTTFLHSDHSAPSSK
rat brain α4β2 nAChRs, sequence (P09483 31-630): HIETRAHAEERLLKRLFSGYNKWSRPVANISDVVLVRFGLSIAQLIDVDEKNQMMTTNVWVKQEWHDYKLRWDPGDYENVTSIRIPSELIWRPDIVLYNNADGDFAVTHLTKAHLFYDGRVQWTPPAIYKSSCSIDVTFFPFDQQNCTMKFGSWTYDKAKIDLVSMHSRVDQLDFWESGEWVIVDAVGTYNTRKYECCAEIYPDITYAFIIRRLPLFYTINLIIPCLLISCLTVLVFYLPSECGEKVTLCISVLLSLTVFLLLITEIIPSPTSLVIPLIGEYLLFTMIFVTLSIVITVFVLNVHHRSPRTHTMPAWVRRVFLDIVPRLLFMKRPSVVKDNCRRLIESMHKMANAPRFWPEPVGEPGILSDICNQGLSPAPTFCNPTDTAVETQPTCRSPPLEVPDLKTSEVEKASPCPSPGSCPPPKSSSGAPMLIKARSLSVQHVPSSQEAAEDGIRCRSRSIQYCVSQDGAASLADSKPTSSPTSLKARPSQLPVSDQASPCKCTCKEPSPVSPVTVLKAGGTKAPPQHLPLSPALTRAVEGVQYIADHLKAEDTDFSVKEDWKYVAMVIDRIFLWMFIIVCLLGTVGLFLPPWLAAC
rat brain α4β2 nAChRs, sequence (P12390 25-500): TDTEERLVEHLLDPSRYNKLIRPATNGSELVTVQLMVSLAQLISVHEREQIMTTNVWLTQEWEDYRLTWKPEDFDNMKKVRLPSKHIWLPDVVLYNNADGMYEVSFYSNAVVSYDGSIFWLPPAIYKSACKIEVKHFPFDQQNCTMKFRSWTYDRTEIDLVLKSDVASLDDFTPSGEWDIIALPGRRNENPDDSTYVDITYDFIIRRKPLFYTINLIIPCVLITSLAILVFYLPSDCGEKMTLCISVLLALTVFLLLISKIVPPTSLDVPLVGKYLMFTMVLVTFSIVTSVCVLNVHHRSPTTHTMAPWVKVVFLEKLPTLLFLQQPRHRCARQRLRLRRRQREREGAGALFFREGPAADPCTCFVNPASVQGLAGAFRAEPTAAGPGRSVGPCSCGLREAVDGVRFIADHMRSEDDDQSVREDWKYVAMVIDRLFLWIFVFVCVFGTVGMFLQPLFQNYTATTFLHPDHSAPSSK
rat brain α7 receptors, sequence (Q05941 23-502): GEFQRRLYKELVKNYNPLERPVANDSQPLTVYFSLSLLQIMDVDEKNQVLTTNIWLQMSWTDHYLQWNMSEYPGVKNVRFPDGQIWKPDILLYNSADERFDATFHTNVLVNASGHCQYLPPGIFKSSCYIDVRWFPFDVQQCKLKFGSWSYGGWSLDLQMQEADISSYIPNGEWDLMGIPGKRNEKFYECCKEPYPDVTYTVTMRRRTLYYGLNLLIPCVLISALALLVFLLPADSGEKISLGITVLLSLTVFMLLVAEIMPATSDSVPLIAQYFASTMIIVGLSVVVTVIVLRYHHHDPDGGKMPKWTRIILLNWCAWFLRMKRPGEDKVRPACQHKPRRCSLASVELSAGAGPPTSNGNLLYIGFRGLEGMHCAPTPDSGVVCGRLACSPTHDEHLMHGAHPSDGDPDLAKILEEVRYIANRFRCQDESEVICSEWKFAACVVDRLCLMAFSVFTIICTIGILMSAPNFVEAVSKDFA

As a reminder, the Ki is a dissociation constant, usually derived from enzyme kinetics or from competition with a known ligand. A lower Ki goes with tighter binding. Molecule `C1=CC[C@H](c2cccnc2)NC1` [R-anatabine, anatabine] registered a Ki on rat brain α7 receptors of 680 ± 120 nM.
For orientation: EC50 means the concentration giving half of the maximal effect. Turning to `C1=CC(c2cccnc2)NCC1` (stereo not drawn) [R-isoanatabine, isoanatabine], on human α4β2 nAChR [1], the EC50 came to 310 ± 90 nM and the “Imax (% ACh)” value is on record as 102 ± 5.7 %ACh. Also, on rat brain α4β2 nAChRs, the Ki worked out at 136 ± 11 nM and the “Hill Slope” value was found to be 0.94 ± 0.05. On human α7 nAChR, the EC50 is 61300 ± 12000 nM, the “Imax (% ACh)” value is 35.4 ± 5.3 % ACh and the “agonist character at α7 nAChRs” value was “weak partial agonist”.
Consider `c1cncc([C@@H]2CCCCN2)c1` [S-anabasine, anabasine], for which, on human α4β2 nAChR [2], the EC50 is 4000 nM and the Imax is recorded as 78%.
`C1=CC[C@@H](c2cccnc2)NC1` [S-anatabine, anatabine] showed a Ki at rat brain α7 receptors of 236 ± 20 nM.
As to `C1=CC(c2cccnc2)NCC1` (stereo not drawn) [S-isoanatabine, isoanatabine], on human α4β2 nAChR [1], the midpoint of the response, the EC50, lay at 1010 ± 330 nM and the “Imax (% ACh)” value came out at 78.7 ± 1.9 %ACh. On rat brain α4β2 nAChRs, the Ki came to 108 ± 14 nM and the “Hill Slope” value amounted to 1.08 ± 0.15. On human α7 nAChR, the EC50 was 52300 ± 13000 nM, the “Imax (% ACh)” value is reported as 81.9 ± 9.1 % ACh and the “agonist character at α7 nAChRs” value is given as “highly efficacious agonists”.
